From US20260327264A1, “PEPTIDE INHIBITORS OF INTERLEUKIN-23 RECEPTOR” (Zealand Pharma A/S, priority 2023, published 2026)
Where two headings read alike, the source gives them in different places. *1 amine or outer side, *2 acyl side, *3 side chain or, on linkers, in order; H or OH if unused. Where a SMILES comes first, the peptide text is derived from it. Bridges are numbered along the chain shown (N, C = ends). [ ]: non-standard residue; d: D form. 2Nal = N[C@@H](Cc1ccc2ccccc2c1)C(=O)O; AEF = NCCOc1ccc(C[C@H](N)C(=O)O)cc1; X1 = O=C(Cc1ccc(CN[*:1])cc1)[*:2]; 3Pal = N[C@@H](Cc1cccnc1)C(=O)O; αMeL = CC(C)C[C@](C)(N)C(=O)O; CH2COCH2 = O=C(C[*:1])C[*:2]; NMeS = CN[C@@H](CO)C(=O)O; Dab = NCC[C@H](N)C(=O)O

How the values were obtained:
human IL-23R = target: T1, human IL-23R (Homo sapiens, UniProt Q5VWK5); assay: Binding assay: displacement of fluorophore (TAMRA)-labelled reference compound from human IL-23R (BRET, Nluc-IL23R fusion protein membranes); conditions: for Emax: read-out: % displacement (hIL-23R binding)
T1 construct: Nanoluc luciferase (Nluc); secretion signal encoded by the plasmid (not specified); expressed in transfected cells; crude membranes used in the assay
T1 sequence (Q5VWK5 22-629): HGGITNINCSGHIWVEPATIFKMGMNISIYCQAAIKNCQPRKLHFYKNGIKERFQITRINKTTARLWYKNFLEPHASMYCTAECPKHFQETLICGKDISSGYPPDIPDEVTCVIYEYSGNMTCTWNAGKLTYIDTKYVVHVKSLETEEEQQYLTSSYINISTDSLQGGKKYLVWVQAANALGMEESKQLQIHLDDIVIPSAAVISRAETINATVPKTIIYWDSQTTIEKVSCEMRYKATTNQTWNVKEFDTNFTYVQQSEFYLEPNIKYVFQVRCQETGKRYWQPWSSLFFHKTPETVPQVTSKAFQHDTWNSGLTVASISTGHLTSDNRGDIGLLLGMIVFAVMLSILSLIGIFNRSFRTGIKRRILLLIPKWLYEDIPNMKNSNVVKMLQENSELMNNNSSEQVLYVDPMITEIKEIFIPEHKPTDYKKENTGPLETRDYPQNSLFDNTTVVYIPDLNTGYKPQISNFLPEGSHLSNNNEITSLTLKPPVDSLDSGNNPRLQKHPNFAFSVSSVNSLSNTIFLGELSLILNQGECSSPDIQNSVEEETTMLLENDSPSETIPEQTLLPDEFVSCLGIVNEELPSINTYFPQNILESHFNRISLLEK

[1] = tested on: IL-23 mediated STAT3 signalling (DB cells); assay: Functional inhibition of IL-23 mediated STAT3 signalling (phospho-STAT3 Tyr705) in DB cells; assay type: cell-based, human; conditions: for hIL-23 (pSTAT3) antagonist % inhibition: Table 3-2, maximal inhibitory response, EC80 of hIL-23
Text: Upon binding of IL-23, the IL-23R forms a heterodimer signalling complex together with IL-12R β1, which through the JAK2/STAT3 pathway promotes phosphorylation of STAT3 to form phospho-STAT3.
For compounds tested in this assay, the response was normalized relative to control values to calculate the IC50 and maximal inhibitory response from a concentration response curve of the compound in presence of a fixed concentration of human IL-23.
The assay procedure was as follows. […] Following preincubation of the DB cells with inhibitor for 15 min in a cell incubator (37° C., 5% CO2), 20 μL of the prepared 3× the EC80 of hIL-23 solution was added to each well and incubated for 90 min in a cell incubator (37° C., 5% CO2). For some wells buffer only or IL-23 only corresponding to the EC80 was added to obtain readouts needed for normalization. To terminate the assay, the plate was spun at 1000 G for 5 min to pellet cells, the supernatant removed using an 8-channel manual pipette, and then added 50 μL/well Complete Lysis Buffer from the MSD STAT3 kit (Cat #K150SVD, Mesoscale) to the cell pellet. To completely lyse cells to release phospho-STAT3 for detection, the plate was shaken for 10 min at room temperature (500 rpm) sealed with aluminium foil and placed at −80° C. for a minimum of 15 min. Detection of the phospho-STAT3 level in the cell lysate from the individual wells was determined using the MSD STAT3 kit (Cat #K150SVD, Mesoscale) and read on a Meso QuickPlex SQ 120 plate reader (Mesoscale).
For data analysis raw data counts from the Meso QuickPlex SQ 120 plate reader were normalized relative to the response by the EC80 of hIL-23 alone (no compound added) and the buffer level.

[2] = Table 3-2, EC80 of hIL-23, read-out: hIL-23 (pSTAT3) antagonist IC50

| Emax (human IL-23R) | IC50 ([1]; EC80 of hIL-23, read-out: IC50 (pSTAT3)) | IC50 [1, 2] | IC50 (human IL-23R) | Structure (SMILES) | hIL-23 (pSTAT3) antagonist % inhibition [1] |
| --- | --- | --- | --- | --- | --- |
| 91% | 0.038 nM | 0.038 nM |  | CC(C)C[C@]1(C)NC(=O)[C@H](Cc2ccc3ccccc3c2)NC(=O)[C@H](Cc2ccc(OCCN)cc2)NC(=O)[C@@H]2CCNC(=O)CC[C@H](NC(=O)[C@H](CO)NC(=O)Cc3ccc(cc3)CNC(=O)CC[C@@H](C(=O)N[C@@H](CCN)C(=O)N[C@@H](Cc3cccnc3)C(=O)N[C@H](Cc3c[nH]cn3)C(N)=O)NC1=O)C(=O)N[C@@H](Cc1c[nH]c3ccccc13)C(=O)N[C@@H](CCC(N)=O)C(=O)N2 [Compound 10, [4-Aminomethyl-phenylacetyl](1c)*SE(2c)WQ[Dab](2c)[Y(2-aminoethoxy)][2-Nal][2-Me-Leu]E(1c)[Dab][3-(3-Pyridyl)-Ala][{d}H]-[NH2]] ([X1]SEWQ[Dab][AEF][2Nal][αMeL]E[Dab][3Pal][dH]-NH2; lactam 3-6, N-10) | 99% |
| 96% |  | 12 nM |  | CC(C)C[C@]1(C)NC(=O)[C@H](Cc2ccc3ccccc3c2)NC(=O)[C@H](Cc2ccc(OCCN)cc2)NC(=O)[C@@H]2CCNC(=O)CC[C@H](NC(=O)[C@H](CO)NC(=O)Cc3ccc(cc3)CNC(=O)CC[C@@H](C(=O)NCC[C@H](N)C(=O)N[C@@](C)(Cc3cccnc3)C(N)=O)NC1=O)C(=O)N[C@@H](Cc1c[nH]c3ccccc13)C(=O)N[C@@H](CCC(N)=O)C(=O)N2 [Compound 15, [4-Aminomethyl-phenylacetyl](1c)*SE(2c)WQ[Dab](2c)[Y(2-aminoethoxy)][2-Nal][2-Me-Leu]E(1c)[Iso-Dab][2-Me-3-(3-Pyridyl)-Ala]-[NH2]] | 97% |
| 103% |  | 0.16 nM |  | CNC(=O)[C@H](Cc1cncnc1)NC(=O)[C@H](CCN)NC(=O)[C@@H]1CCC(=O)NCc2ccc(cc2)CC(=O)N[C@@H](CO)C(=O)N[C@H]2CCC(=O)NCC[C@H](NC(=O)[C@H](CCC(N)=O)NC(=O)[C@H](Cc3c[nH]c4ccccc34)NC2=O)C(=O)N[C@@H](Cc2ccc(OCCN)cc2)C(=O)N[C@@H](Cc2ccc3ccccc3c2)C(=O)N[C@@](C)(CC(C)C)C(=O)N1 [Compound 19, [4-Aminomethyl-phenylacetyl](1c)*SE(2c)WQ[Dab](2c)[Y(2-aminoethoxy)][2-Nal][2-Me-Leu]E(1c)[Dab][3-(3,5-Pyrimidyl)-Ala]-[NHMe]] | 100% |
|  |  |  | 0.035 nM | CNC(=O)[C@H](Cc1cccnc1)NC(=O)[C@H](CCN)NC(=O)[C@@H]1CCC(=O)NCc2ccc(cc2)CC(=O)N[C@@H](CO)C(=O)N[C@H]2CCC(=O)NCC[C@H](NC(=O)[C@H](C)NC(=O)[C@H](Cc3c[nH]c4ccccc34)NC2=O)C(=O)N[C@@H](Cc2ccc(OCCN)cc2)C(=O)N[C@@H](Cc2ccc3ccccc3c2)C(=O)N[C@@](C)(CC(C)C)C(=O)N1 [Compound 22, [4-Aminomethyl-phenylacetyl](1c)*SE(2c)WA[Dab](2c)[Y(2-aminoethoxy)][2-Nal][2-Me-Leu]E(1c)[Dab][3-(3-Pyridyl)-Ala]-[NHMe]] ([X1]SEWA[Dab][AEF][2Nal][αMeL]E[Dab][3Pal]-NHMe; lactam 3-6, N-10) | 101% |
| 97% |  | 5.2 nM | 0.12 nM | CNC(=O)[C@H](Cc1cccnc1)NC(=O)[C@H](CCN)NC(=O)[C@@H]1CCC(=O)NCc2ccc(cc2)CC(=O)N[C@@H](CO)C(=O)N[C@H]2CCC(=O)NCC[C@H](NC(=O)[C@H](Cc3ccccc3)NC(=O)[C@H](Cc3c[nH]c4ccccc34)NC2=O)C(=O)N[C@@H](Cc2ccc(OCCN)cc2)C(=O)N[C@@H](Cc2ccc3ccccc3c2)C(=O)N[C@@](C)(CC(C)C)C(=O)N1 [Compound 23, [4-Aminomethyl-phenylacetyl](1c)*SE(2c)WF[Dab](2c)[Y(2-aminoethoxy)][2-Nal][2-Me-Leu]E(1c)[Dab][3-(3-Pyridyl)-Ala]-[NHMe]] ([X1]SEWF[Dab][AEF][2Nal][αMeL]E[Dab][3Pal]-NHMe; lactam 3-6, N-10) | 99% |
| 105% |  | 0.38 nM | 0.073 nM | CNC(=O)[C@H](Cc1cccnc1)NC(=O)[C@H](CCN)NC(=O)[C@@H]1CCC(=O)NCc2ccc(cc2)CC(=O)N[C@@H](C)C(=O)N[C@H]2CCC(=O)NCC[C@H](NC(=O)[C@H](CCC(N)=O)NC(=O)[C@H](Cc3c[nH]c4ccccc34)NC2=O)C(=O)N[C@@H](Cc2ccc(N3CCOCC3)cc2)C(=O)N[C@@H](Cc2ccc3ccccc3c2)C(=O)NC(C)(C)C(=O)N1 [Compound 51, [4-aminomethyl-phenylacetyl](1c)*AE(2c)WQ[Dab](2c)[F(4-morpholine)][2Nal][Aib]E(1c)[Dab][3-(3-Pyridyl)-alanyl]-[NHMe]] | 96% |
| 102% |  |  | 0.23 nM | CNC(=O)[C@H](Cc1cccnc1)NC(=O)[C@H](COC)NC(=O)[C@@H]1CCC(=O)NCc2ccc(cc2)CC(=O)N[C@@H](C)C(=O)N[C@H]2CCC(=O)NCC[C@H](NC(=O)[C@H](CCC(N)=O)NC(=O)[C@H](Cc3c[nH]c4ccccc34)NC2=O)C(=O)N[C@@H](Cc2ccc(N3CCOCC3)cc2)C(=O)N[C@@H](Cc2ccc3ccccc3c2)C(=O)NC(C)(C)C(=O)N1 [Compound 53, [4-aminomethyl-phenylacetyl](1c)*AE(2c)WQ[Dab](2c)[F(4-morpholine)][2Nal][Aib]E(1c)[Ser(OCH3)][3-(3-Pyridyl)-alanyl]-[NHMe]] |  |
| 102% |  |  |  | CC(=O)N[C@H]1CCSC[C@@H](C(=O)N[C@@H](Cc2ccc(OCCN)cc2)C(=O)N[C@@H](Cc2c[nH]c3ccccc23)C(=O)N[C@@](C)(CCCCN)C(=O)N[C@@H](CCC(=O)O)C(=O)N[C@@H](CC(N)=O)C(=O)NCC(N)=O)NC(=O)[C@H](CCC(N)=O)NC(=O)[C@H](Cc2c[nH]c3ccccc23)NC(=O)[C@H]([C@@H](C)O)NC(=O)[C@H](CCC(N)=O)NC1=O [Compound C, [Ac]-[Abu](16i)QTWQC(16i)[Y(2-aminoethoxy)]W[2-Me-Lys]ENG-[NH2], reference compound] |  |
| 102% |  |  |  | CC(C)C[C@]1(C)NC(=O)[C@H](Cc2ccc3ccccc3c2)NC(=O)[C@H](Cc2ccc(OCCN)cc2)NC(=O)[C@@H]2CSCC(=O)CSC[C@H](NC(=O)[C@H](CO)N(C)C(=O)Cc3ccc(cc3)CNC(=O)CC[C@@H](C(=O)N[C@@H](CCN)C(N)=O)NC1=O)C(=O)N[C@@H](Cc1c[nH]c3ccccc13)C(=O)N[C@@H](CCC(N)=O)C(=O)N2 [Ref 141, [4-Aminomethyl-phenylacetyl](1c)*[N—Me-Ser]C(2a)WQC(2a)[Y(2-aminoethoxy)][2-Nal][2-Me-Leu]E(1c)[Dab]-[NH2], reference compound] ([X1][NMeS]CWQC[AEF][2Nal][αMeL]E[Dab]-NH2; linker 3-6 via CH2COCH2; lactam N-10) |  |

| Structure (SMILES) | Emax (human IL-23R) | IC50 ([1]; EC80 of hIL-23, read-out: IC50 (pSTAT3)) | IC50 [1, 2] | IC50 (human IL-23R) | hIL-23 (pSTAT3) antagonist % inhibition [1] |
| --- | --- | --- | --- | --- | --- |
| CC(C)C[C@]1(C)NC(=O)[C@H](Cc2c[nH]c3ccccc23)NC(=O)[C@H](Cc2c[nH]c3ccccc23)NC(=O)[C@@H]2CSCC(=O)CSC[C@H](NC(=O)[C@H]([C@@H](C)O)NC(=O)[C@@H](NC(=O)CN)CSCC(=O)CSC[C@@H](C(=O)N[C@@H](CO)C(N)=O)NC1=O)C(=O)N[C@@H](Cc1c[nH]c3ccccc13)C(=O)N[C@@H](CCC(=O)O)C(=O)N2 (single isomer, unassigned) [I5 (isomer 3), H-GC(1a)TC(2a)WEC(2a)WW[2-Me-Leu]C(1a)S-[NH2], reference compound] | 102% |  |  |  | 91% |
